In patent US20230212549A1, “COMPOUNDS COMPRISING A […] LIGAND AND USE THEREOF” (priority 2021, published 2023):
Numbered stars: 1 amine (or outer) side, 2 acyl side, 3 side chain; on linkers, the order of the positions; unused ones are H or OH. Bridge positions count the residues as written; N and C are the ends. Square brackets hold non-standard residues; d marks the D form. Peptide text beside a SMILES is read from it. * marks the point of attachment. X13 = O=C(O)CN1CCN(CC(=O)O)CCN(CC(=O)N2CCN(Cc3cc(C[*:1])cc(C[*:2])c3)CC2)CCN(CC(=O)O)CC1; X12 = O=C(O)CN1CCN(CC(=O)O)CCN(CC(=O)NCCCOCCOCCOCCCN*)CCN(CC(=O)O)CC1; mXylylene = c1cc(C[*:1])cc(C[*:2])c1; Suc = O=C(CCC(=O)[*:2])[*:1]; Nle = CCCC[C@H](N)C(=O)O; Hexanoyl = CCCCCC(=O)*; Mpa = O=C(O)CCS

Columns and labels:
[1] = Plasma stability assay, mouse plasma; assay type: in vitro ADME; details: 37° C.
[2] = molecular target: T1, FAP-expressing human WI-38 fibroblasts (Homo sapiens, UniProt Q12884); assay: Competitive FACS binding assay
T1 construct: FAP-expressing human WI-38 fibroblasts (ECACC) were cultured in EMEM; host or cells: WI-38 human fibroblasts
Procedure: Cells were analyzed in an Attune NxT flow cytometer. […] […].
Cells were analyzed in an Attune NxT flow cytometer. […]

Human recombinant FAP [3] = molecular target: T2, Human recombinant FAP (Homo sapiens, UniProt Q12884); assay: Surface plasmon resonance (Biacore) assay; assay type: binding
Human recombinant FAP [4] = molecular target: T2, Human recombinant FAP; assay: FRET-based FAP protease activity assay; assay type: biochemical; set-up: purchased R&D systems 3715-SE
recombinant human PREP = molecular target: T3, recombinant human PREP (Homo sapiens, UniProt P48147); assay: PREP protease activity assay; assay type: biochemical
T3 construct: purchased R&D systems 4308-SE
T3 sequence (P48147 1-710): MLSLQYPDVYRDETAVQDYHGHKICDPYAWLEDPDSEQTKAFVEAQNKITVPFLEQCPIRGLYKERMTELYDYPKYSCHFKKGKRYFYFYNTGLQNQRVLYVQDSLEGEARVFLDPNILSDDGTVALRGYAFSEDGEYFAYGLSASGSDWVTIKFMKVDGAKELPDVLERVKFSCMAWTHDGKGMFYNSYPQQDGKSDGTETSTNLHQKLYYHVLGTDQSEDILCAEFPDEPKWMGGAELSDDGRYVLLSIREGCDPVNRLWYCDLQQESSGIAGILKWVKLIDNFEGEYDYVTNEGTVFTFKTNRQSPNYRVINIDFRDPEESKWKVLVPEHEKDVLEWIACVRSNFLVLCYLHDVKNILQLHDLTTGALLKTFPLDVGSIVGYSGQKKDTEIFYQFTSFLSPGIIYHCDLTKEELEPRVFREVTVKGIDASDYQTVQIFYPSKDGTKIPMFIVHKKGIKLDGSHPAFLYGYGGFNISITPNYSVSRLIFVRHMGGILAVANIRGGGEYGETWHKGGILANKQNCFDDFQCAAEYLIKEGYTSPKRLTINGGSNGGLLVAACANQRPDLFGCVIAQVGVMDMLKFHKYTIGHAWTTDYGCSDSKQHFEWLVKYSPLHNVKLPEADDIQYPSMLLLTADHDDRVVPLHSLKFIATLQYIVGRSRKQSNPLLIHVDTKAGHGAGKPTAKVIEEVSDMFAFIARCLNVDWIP

Recombinant human DPP4 = molecular target: T4, Recombinant human DPP4 (Homo sapiens, UniProt P27487); assay: DPP4 protease activity assay; assay type: biochemical
T4 construct: purchased R&D systems 9168-SE

[5] = 24 h incubation, 37° C.
[6] = 24 h incubation, 37° C.; remark: listed apart in the source
[7] = molecular target: Ca2+ channel (L, dihydropyridine site) (Rattus norvegicus, UniProt P22002); assay: biochemical; details: read-out: % Inhibition of Specific Binding
[8] = pIC50 Category (Activity), FRET-based FAP protease activity assay, recombinant human FAP, 37° C.

T1 sequence (Q12884 whole entry): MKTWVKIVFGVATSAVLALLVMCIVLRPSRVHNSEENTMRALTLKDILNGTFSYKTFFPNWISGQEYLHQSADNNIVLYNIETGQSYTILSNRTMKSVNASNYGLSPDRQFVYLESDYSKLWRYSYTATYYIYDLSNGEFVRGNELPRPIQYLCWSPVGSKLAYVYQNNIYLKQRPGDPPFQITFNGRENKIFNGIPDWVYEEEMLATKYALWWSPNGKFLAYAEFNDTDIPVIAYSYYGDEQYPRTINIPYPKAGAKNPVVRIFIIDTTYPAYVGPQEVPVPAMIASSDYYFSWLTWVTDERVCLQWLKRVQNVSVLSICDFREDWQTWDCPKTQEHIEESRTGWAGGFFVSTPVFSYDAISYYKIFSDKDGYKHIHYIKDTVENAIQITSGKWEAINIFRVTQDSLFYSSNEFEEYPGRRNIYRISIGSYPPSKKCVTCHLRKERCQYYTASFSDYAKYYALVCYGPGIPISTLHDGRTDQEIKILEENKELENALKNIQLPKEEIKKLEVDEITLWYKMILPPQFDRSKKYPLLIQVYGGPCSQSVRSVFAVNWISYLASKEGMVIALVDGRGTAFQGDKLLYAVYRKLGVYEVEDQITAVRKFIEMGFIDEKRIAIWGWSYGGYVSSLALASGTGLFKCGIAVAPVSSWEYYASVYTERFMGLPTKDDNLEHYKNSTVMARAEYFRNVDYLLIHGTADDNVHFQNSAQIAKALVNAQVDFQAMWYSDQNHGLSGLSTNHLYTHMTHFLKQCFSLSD
T2 sequence (Q12884 whole entry): as above
T4 sequence (P27487 whole entry): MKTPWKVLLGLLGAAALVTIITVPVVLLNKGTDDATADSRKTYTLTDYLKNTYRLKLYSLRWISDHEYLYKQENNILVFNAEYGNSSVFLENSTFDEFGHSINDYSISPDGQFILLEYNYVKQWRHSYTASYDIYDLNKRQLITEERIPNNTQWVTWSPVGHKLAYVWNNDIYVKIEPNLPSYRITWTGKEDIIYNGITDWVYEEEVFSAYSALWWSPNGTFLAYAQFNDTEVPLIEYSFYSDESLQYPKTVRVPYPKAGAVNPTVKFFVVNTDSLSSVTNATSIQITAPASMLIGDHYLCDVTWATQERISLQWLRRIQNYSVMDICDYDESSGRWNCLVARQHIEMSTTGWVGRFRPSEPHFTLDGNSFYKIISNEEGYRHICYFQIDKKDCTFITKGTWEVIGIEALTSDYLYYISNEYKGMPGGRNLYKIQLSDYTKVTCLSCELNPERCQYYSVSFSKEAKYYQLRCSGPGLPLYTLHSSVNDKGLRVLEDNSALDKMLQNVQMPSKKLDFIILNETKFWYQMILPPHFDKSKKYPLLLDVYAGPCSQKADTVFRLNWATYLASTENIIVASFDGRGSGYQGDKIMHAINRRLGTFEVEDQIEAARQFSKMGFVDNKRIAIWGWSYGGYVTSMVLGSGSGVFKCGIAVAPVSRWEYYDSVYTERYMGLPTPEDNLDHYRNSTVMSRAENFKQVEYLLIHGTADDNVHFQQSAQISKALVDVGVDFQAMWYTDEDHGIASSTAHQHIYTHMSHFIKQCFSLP
Chain of Ca2+ channel (L, dihydropyridine site) (P22002 whole entry): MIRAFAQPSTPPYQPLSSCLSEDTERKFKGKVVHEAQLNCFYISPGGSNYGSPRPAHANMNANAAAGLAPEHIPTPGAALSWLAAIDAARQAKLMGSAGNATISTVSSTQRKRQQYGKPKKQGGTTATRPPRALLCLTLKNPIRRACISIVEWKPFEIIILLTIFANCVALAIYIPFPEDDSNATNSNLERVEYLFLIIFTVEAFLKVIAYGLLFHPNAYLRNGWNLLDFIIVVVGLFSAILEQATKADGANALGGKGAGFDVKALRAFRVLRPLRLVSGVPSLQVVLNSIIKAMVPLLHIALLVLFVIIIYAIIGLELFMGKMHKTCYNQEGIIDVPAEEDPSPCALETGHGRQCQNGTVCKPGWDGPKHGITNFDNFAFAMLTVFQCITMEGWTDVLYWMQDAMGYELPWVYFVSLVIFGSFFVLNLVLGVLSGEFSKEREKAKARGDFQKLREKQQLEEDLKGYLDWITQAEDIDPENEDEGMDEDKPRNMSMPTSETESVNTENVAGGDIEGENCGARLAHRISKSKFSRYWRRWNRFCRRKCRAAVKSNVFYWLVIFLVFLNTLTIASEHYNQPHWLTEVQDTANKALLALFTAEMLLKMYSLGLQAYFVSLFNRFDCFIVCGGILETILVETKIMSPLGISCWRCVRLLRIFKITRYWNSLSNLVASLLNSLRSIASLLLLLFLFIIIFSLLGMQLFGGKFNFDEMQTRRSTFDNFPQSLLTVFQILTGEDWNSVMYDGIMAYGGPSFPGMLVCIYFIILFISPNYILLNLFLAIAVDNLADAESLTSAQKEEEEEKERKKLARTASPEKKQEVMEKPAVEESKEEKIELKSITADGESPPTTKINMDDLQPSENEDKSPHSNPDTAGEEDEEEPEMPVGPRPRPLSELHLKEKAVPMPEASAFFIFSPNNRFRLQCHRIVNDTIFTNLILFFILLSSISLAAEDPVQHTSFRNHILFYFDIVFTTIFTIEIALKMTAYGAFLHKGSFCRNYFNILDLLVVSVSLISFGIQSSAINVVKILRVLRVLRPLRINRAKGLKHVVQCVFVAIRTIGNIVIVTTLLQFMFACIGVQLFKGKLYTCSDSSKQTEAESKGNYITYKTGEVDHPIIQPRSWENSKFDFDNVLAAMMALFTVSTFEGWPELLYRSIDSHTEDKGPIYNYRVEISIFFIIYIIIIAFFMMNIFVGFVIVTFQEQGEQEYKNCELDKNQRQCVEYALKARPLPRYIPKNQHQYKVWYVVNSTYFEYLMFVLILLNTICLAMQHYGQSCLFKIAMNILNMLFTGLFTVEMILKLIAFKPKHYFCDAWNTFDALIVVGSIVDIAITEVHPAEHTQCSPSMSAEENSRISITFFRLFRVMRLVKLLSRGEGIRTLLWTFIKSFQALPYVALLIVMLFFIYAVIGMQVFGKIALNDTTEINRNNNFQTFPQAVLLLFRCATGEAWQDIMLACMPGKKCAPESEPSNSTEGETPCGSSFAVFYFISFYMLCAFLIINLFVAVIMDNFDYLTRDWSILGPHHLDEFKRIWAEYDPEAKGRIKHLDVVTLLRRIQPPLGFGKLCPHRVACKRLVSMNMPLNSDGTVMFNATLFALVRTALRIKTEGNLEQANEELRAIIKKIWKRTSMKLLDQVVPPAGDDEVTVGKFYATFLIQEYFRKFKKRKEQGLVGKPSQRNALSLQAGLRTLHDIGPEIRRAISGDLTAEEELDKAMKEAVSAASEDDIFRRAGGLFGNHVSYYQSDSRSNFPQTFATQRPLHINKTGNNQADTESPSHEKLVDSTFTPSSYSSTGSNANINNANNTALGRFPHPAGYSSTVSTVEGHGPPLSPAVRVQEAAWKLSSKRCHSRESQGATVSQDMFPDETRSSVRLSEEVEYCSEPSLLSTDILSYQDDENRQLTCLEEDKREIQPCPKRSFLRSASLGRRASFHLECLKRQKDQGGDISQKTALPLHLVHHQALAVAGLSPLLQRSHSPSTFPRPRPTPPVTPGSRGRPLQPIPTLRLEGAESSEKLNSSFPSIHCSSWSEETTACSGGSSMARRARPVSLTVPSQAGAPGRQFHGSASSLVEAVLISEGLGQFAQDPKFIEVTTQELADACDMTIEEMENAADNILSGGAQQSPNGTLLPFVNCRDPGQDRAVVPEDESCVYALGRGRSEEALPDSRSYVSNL

| IC50 [2] | Kd (Human recombinant FAP [3]) | IC50 (Human recombinant FAP [4]; [8]) | remaining at 4 h, 9.8 µM ([1]; mouse, plasma, 4 h incubation, read-out: % intact compound remaining after incubation, Mouse plasma) | IC50 (recombinant human PREP) | IC50 (Recombinant human DPP4) | IC50 (Human recombinant FAP [4]; pIC50 (highest activity categories), text on Table 9 categories (FACS binding and FAP activity assay)) | % intact compound remaining after incubation, Mouse plasma ([1]; 4 h incubation) | Compound | remaining at 24 h, 9.8 µM ([1]; mouse, plasma, 24 h incubation, read-out: % intact compound remaining after incubation, Mouse plasma) | % intact compound remaining after incubation, Human plasma [5] | % intact compound remaining after incubation, Rat plasma [6] | inhibition at 10 µM [7] |
| --- | --- | --- | --- | --- | --- | --- | --- | --- | --- | --- | --- | --- |
| 100 to 794 nM |  | 100 to 794 nM |  | > 1000 nM | > 1000 nM |  |  | C[C@@H](O)[C@@H]1NC(=O)[C@@H]2CCCN2C(=O)[C@@H]2CCCN2C(=O)CCSCc2cccc(c2)CSC[C@@H](C(=O)N[C@@H](CC(=O)O)C(N)=O)NC(=O)[C@H](Cc2ccccc2)NC(=O)[C@H](CCC(N)=O)NC1=O [3BP-3419, [3MeBn-Spa-Pro-Pro-Thr-Gln-Phe-Cys]-Asp-NH2] ([Mpa]PPTQFCD-NH2; linker 1-7 via mXylylene) |  |  |  |  |
| 10 to 79.4 nM | < 10 nM | < 10 nM |  | > 1000 nM | > 1000 nM |  | 75% | CCCC[C@H](NC(=O)CCC(=O)NCCCOCCOCCOCCCNC(=O)CN1CCN(CC(=O)O)CCN(CC(=O)O)CCN(CC(=O)O)CC1)C(=O)N[C@H]1CSCc2cccc(c2)CSC[C@@H](C(=O)N[C@@H](CC(=O)O)C(N)=O)NC(=O)[C@H](Cc2ccccc2)NC(=O)[C@H](CCC(=O)O)NC(=O)[C@H]([C@@H](C)O)NC(=O)[C@@H]2CCCN2C(=O)[C@@H]2CCCN2C1=O [3BP-3320, DOTA-Ttds-Nle-[Cys(3MeBn)-Pro-Pro-Thr-Glu-Phe-Cys]-Asp-NH2] ({X12-Suc}-[Nle]CPPTEFCD-NH2; linker 2-8 via mXylylene) |  |  |  |  |

The next lines start with the compound.

| Compound | IC50 [2] | Kd (Human recombinant FAP [3]) | IC50 (Human recombinant FAP [4]; [8]) | remaining at 4 h, 9.8 µM ([1]; mouse, plasma, 4 h incubation, read-out: % intact compound remaining after incubation, Mouse plasma) | IC50 (recombinant human PREP) | IC50 (Recombinant human DPP4) | IC50 (Human recombinant FAP [4]; pIC50 (highest activity categories), text on Table 9 categories (FACS binding and FAP activity assay)) | % intact compound remaining after incubation, Mouse plasma ([1]; 4 h incubation) | remaining at 24 h, 9.8 µM ([1]; mouse, plasma, 24 h incubation, read-out: % intact compound remaining after incubation, Mouse plasma) | % intact compound remaining after incubation, Human plasma [5] | % intact compound remaining after incubation, Rat plasma [6] | inhibition at 10 µM [7] |
| --- | --- | --- | --- | --- | --- | --- | --- | --- | --- | --- | --- | --- |
| CCCCCC(=O)N[C@H]1CSCc2cc(cc(CN3CCN(C(=O)CN4CCN(CC(=O)O)CCN(CC(=O)O)CCN(CC(=O)O)CC4)CC3)c2)CSC[C@@H](C(=O)O)NC(=O)[C@H](Cc2ccccc2)NC(=O)[C@H](CCC(N)=O)NC(=O)[C@H]([C@@H](C)O)NC(=O)[C@@H]2CCCN2C(=O)[C@@H]2CCCN2C1=O [3BP-3555, Hex-[Cys(tMeBn(DOTA-PP))-Pro-Pro-Thr-Gln-Phe-Cys]-OH] | 10 to 79.4 nM | < 10 nM | < 10 nM |  |  |  |  |  | 88% |  |  |  |
| CCCC[C@H](NC(=O)CCC(=O)NCCCOCCOCCOCCCNC(=O)CN1CCN(CC(=O)O)CCN(CC(=O)O)CCN(CC(=O)O)CC1)C(=O)N[C@H]1CSCc2cccc(c2)CSC[C@@H](C(=O)N[C@@H](CC(=O)O)C(=O)N[C@@H](Cc2c[nH]cn2)C(=O)N[C@@H](Cc2ccccc2)C(=O)N[C@@H](CCCNC(=N)N)C(=O)N[C@@H](CC(=O)O)C(N)=O)NC(=O)[C@H](Cc2ccccc2)NC(=O)[C@H](CCC(=O)O)NC(=O)[C@H]([C@@H](C)O)NC(=O)[C@@H]2CCCN2C(=O)[C@@H]2CCCN2C1=O [3BP-3168, DOTA-Ttds-Nle-[Cys(3MeBn)-Pro-Pro-Thr-Glu-Phe-Cys]-Asp-His-Phe-Arg-Asp-NH2] ({X12-Suc}-[Nle]CPPTEFCDHFRD-NH2; linker 2-8 via mXylylene) | < 10 nM | < 10 nM | < 10 nM | 100% | > 1000 nM | > 1000 nM | < 10 nM |  |  |  |  |  |
| CCCCCC(=O)N[C@H]1CSCc2cc(cc(CN3CCN(C(=O)CN4CCN(CC(=O)O)CCN(CC(=O)O)CCN(CC(=O)O)CC4)CC3)c2)CSC[C@@H](C(=O)N[C@@H](CC(=O)O)C(N)=O)NC(=O)[C@H](Cc2ccccc2)NC(=O)[C@H](CCC(N)=O)NC(=O)[C@H]([C@@H](C)O)NC(=O)[C@@H]2CCCN2C(=O)[C@@H]2CCCN2C1=O [3BP-3407, Hex-[Cys(tMeBn(DOTA-PP))-Pro-Pro-Thr-Gln-Phe-Cys]-Asp-NH2] (Hexanoyl-CPPTQFCD-NH2; linker 1-7 via X13) |  |  |  |  |  |  |  |  |  | 100% (24 h) | 100% (24 h) | 42% |
